Paper PMC7419507, “In vitro Cas9-assisted editing of modular polyketide synthase genes to produce desired natural product derivatives” (Nature Communications, 2020)
“And” between values parts separate entries of the source, which are not always exact repeats. Equal values may be shown once.

What was measured:
Type in all cases: cell-based
[1] = test system: human ovarian adenocarcinoma SKOV-3 cells; experiment: Cytotoxicity assay (CellTiter-Glo, 72 h), SKOV-3; conditions: raw replicate data
Experimental: (§1) Jurkat cells were cultured in RPMI1640 medium supplemented with 10% foetal bovine serum, penicillin (50 U/ml), streptomycin (50 μg/ml), and Glutamax. SKOV-3 cells were cultured in DMEM medium supplemented with 10% fetal bovine serum, penicillin (50 U/ml), and streptomycin (50 μg/ml). MESO-1 cells were cultured in RPMI1640 medium supplemented with 10% fetal bovine serum, penicillin (50 U/ml), and streptomycin (50 μg/ml). All cell lines were seeded in a 384-well plate at a density of 1000 cells/well in 20 μl of media and incubated at 37 °C in a humidified incubator with 5% CO2. After 4 h, 2-fold dilution samples resolved in DMSO were added to the cell culture at the concentration of 0.5% (0.1 μl) and incubated for 72 h. Cell viabilities were measured using a CellTiter-Glo luminescent cell viability assay and EnVision multilabel plate reader.

[2] = Cytotoxicity assay (CellTiter-Glo, 72 h), MESO-1; conditions: human
Experimental: as §1

[3] = test system: malignant pleural mesothelioma MESO-1 cells; experiment: Cytotoxicity assay (CellTiter-Glo, 72 h), MESO-1; conditions: raw replicate data
Experimental: as §1

## COC1CC2CCC(C)C(O)(O2)C(=O)C(=O)N2CCCCC2C(=O)OC(C(C)CC2CCC(O)C(OC)C2)CCC(C)C=C(C)C(O)C(OC)C(=O)C(C)CC(C)C=CC=CC=C1C (stereo not shown) [Compound 16, 32-desketorapamycin]
[1]; conc 0.0244141 uM
  SKOV3 viability (%): 61.8% and 57.1%
[1]; conc 0.0488281 uM
  SKOV3 viability (%): 55.9% and 56.4%
[1]; conc 0.0976562 uM
  SKOV3 viability (%): 56.0% and 58.1%
[1]; conc 0.195312 uM
  SKOV3 viability (%): 52.7% and 56.6%
[1]; conc 0.390625 uM
  SKOV3 viability (%): 55.9% and 59.7%
[1]; conc 0.78125 uM
  SKOV3 viability (%): 59.7% and 56.2%
[1]; conc 1.5625 uM
  SKOV3 viability (%): 58.0% and 59.2%
[1]; conc 3.125 uM
  SKOV3 viability (%): 56.1% and 56.8%
[1]; conc 12.5 uM
  SKOV3 viability (%): 53.9% and 55.3%
[1]; conc 25 uM
  SKOV3 viability (%): 51.8% and 53.0%
[1]; conc 50 uM
  SKOV3 viability (%): 34.7% and 38.6%
[2]; MESO-1 cells (malignant pleural mesothelioma), MESO-1 cells, 72 h, read-out: Plateau level of cell viability in the dose-response curve
  viability at 72 h: ~75%
[2]; MESO-1 malignant pleural mesothelioma cells, conc 9.53674e-5 uM, raw replicate data, read-out: MESO1 viability (%)
  viability at 72 h, 9.53674e-05 uM: 102%
[2]; MESO-1 malignant pleural mesothelioma cells, conc 0.000190735 uM, raw replicate data, read-out: MESO1 viability (%)
  viability at 72 h, 0.000190735 uM: 86.2%
[2]; MESO-1 malignant pleural mesothelioma cells, conc 0.00038147 uM, raw replicate data, read-out: MESO1 viability (%)
  viability at 72 h, 0.00038147 uM: 94.8%
[2]; MESO-1 malignant pleural mesothelioma cells, conc 0.000762939 uM, raw replicate data, read-out: MESO1 viability (%)
  viability at 72 h, 0.000762939 uM: 80.3%
[2]; MESO-1 malignant pleural mesothelioma cells, conc 0.00152588 uM, raw replicate data, read-out: MESO1 viability (%)
  viability at 72 h, 0.00152588 uM: 82.2%
[2]; MESO-1 malignant pleural mesothelioma cells, conc 0.00305176 uM, raw replicate data, read-out: MESO1 viability (%)
  viability at 72 h, 0.00305176 uM: 74.9%
[2]; MESO-1 malignant pleural mesothelioma cells, conc 0.00610352 uM, raw replicate data, read-out: MESO1 viability (%)
  viability at 72 h, 0.00610352 uM: 80.5%
[2]; MESO-1 malignant pleural mesothelioma cells, conc 0.012207 uM, raw replicate data, read-out: MESO1 viability (%)
  viability at 72 h, 0.012207 uM: 73.8%
[2]; MESO-1 malignant pleural mesothelioma cells, conc 0.0244141 uM, raw replicate data, read-out: MESO1 viability (%)
  viability at 72 h, 0.0244141 uM: 74.4%
[2]; MESO-1 malignant pleural mesothelioma cells, conc 0.0488281 uM, raw replicate data, read-out: MESO1 viability (%)
  viability at 72 h, 0.0488281 uM: 72.5%
[2]; MESO-1 malignant pleural mesothelioma cells, conc 0.0976562 uM, raw replicate data, read-out: MESO1 viability (%)
  viability at 72 h, 0.0976562 uM: 78.4%
[2]; MESO-1 malignant pleural mesothelioma cells, conc 0.195312 uM, raw replicate data, read-out: MESO1 viability (%)
  viability at 72 h, 0.195312 uM: 68.5%
[2]; MESO-1 malignant pleural mesothelioma cells, conc 0.390625 uM, raw replicate data, read-out: MESO1 viability (%)
  viability at 72 h, 0.390625 uM: 78.4%
[2]; MESO-1 malignant pleural mesothelioma cells, conc 0.78125 uM, raw replicate data, read-out: MESO1 viability (%)
  viability at 72 h, 0.78125 uM: 66.1%
[2]; MESO-1 malignant pleural mesothelioma cells, conc 1.5625 uM, raw replicate data, read-out: MESO1 viability (%)
  viability at 72 h, 1.5625 uM: 73.1%
[2]; MESO-1 malignant pleural mesothelioma cells, conc 3.125 uM, raw replicate data, read-out: MESO1 viability (%)
  viability at 72 h, 3.125 uM: 67.9%
[2]; MESO-1 malignant pleural mesothelioma cells, conc 6.25 uM, raw replicate data, read-out: MESO1 viability (%)
  viability at 72 h, 6.25 uM: 67.3%
[2]; MESO-1 malignant pleural mesothelioma cells, conc 12.5 uM, raw replicate data, read-out: MESO1 viability (%)
  viability at 72 h, 12.5 uM: 59.2%
[2]; MESO-1 malignant pleural mesothelioma cells, conc 25 uM, raw replicate data, read-out: MESO1 viability (%)
  viability at 72 h, 25 uM: 53.2%
[2]; MESO-1 malignant pleural mesothelioma cells, conc 50 uM, raw replicate data, read-out: MESO1 viability (%)
  viability at 72 h, 50 uM: 31.7%
[3]; conc 9.53674e-5 uM
  MESO1 viability (%): 98.1% and 96.4%
[3]; conc 0.000190735 uM
  MESO1 viability (%): 91.1% and 98.0%
[3]; conc 0.00038147 uM
  MESO1 viability (%): 95.4% and 92.4%
[3]; conc 0.000762939 uM
  MESO1 viability (%): 78.9% and 75.5%
[3]; conc 0.00152588 uM
  MESO1 viability (%): 89.1% and 81.4%
[3]; conc 0.00305176 uM
  MESO1 viability (%): 75.1% and 66.9%
[3]; conc 0.00610352 uM
  MESO1 viability (%): 75.6% and 76.2%
[3]; conc 0.012207 uM
  MESO1 viability (%): 76.9% and 75.8%
[3]; conc 0.0244141 uM
  MESO1 viability (%): 81.3% and 75.2%
[3]; conc 0.0488281 uM
  MESO1 viability (%): 73.0% and 74.7%
[3]; conc 0.0976562 uM
  MESO1 viability (%): 75.8%
[3]; conc 0.195312 uM
  MESO1 viability (%): 76.9% and 68.9%
[3]; conc 0.390625 uM
  MESO1 viability (%): 78.5%
[3]; conc 0.78125 uM
  MESO1 viability (%): 69.3% and 68.9%
[3]; conc 1.5625 uM
  MESO1 viability (%): 73.6% and 69.8%
[3]; conc 3.125 uM
  MESO1 viability (%): 61.9% and 65.8%
[3]; conc 6.25 uM
  MESO1 viability (%): 68.9% and 66.9%
[3]; conc 12.5 uM
  MESO1 viability (%): 60.8% and 58.2%
[3]; conc 25 uM
  MESO1 viability (%): 49.9% and 47.7%
[3]; conc 50 uM
  MESO1 viability (%): 33.7% and 30.2%
